{"source": "paper PMC10572428", "about": "“Possibility of Using Different Calcium Compounds for the Manufacture of Fresh Acid Rennet Cheese from Goat’s Milk” (Foods, 2023)", "key": {"[1]": {"test": "pH of fresh acid rennet cheese", "assay_type": "physicochemical, goat", "experimental": "Fresh acid rennet cheese was produced following the methodology by Pawlos et al. (Scheme 1). The caprine milk was divided into batches, each containing 2000 g of milk, heated to 25 °C, and treated with varying amounts and dosages of calcium compound. The control sample (0 mg Ca per 100 g of milk) and milk with calcium addition (5, 10, 15, 20 mg Ca per 100 g of milk) were pasteurized in a water bath at 90 °C for 15 s. Subsequently, the milk was cooled to 28 °C, and each batch was inoculated with 0.20% (w/w) of starter culture for 15 min before adding 0.02% (v/w) of rennet. […] Acid rennet curds were then cut into 15 × 15 × 15 mm cubes and heated in a water bath at 35 °C for 1.5 h. Following this, the temperature was increased to 40 °C for 0.5 h. The whey was separated using cheesecloth, and the curds were transferred to molds, pressed (10 N kg^−1, 0.5 h) using a pneumatic cylinder press (Pneumatig, Gdynia, Poland), and refrigerated in labeled individual plastic containers at 4 °C for 24 h prior to analysis. All physicochemical analyses were conducted on ground cheese samples.\nA pH meter (FiveEasy Mettler Toledo, Greifensee, Switzerland) and an electrode InLab® Solids Pro-ISM (Mettler Toledo, Greifensee, Switzerland) were used to determine the pH value in cheese."}, "[2]": {"test": "pH value of goat's milk after pasteurization with added calcium compound", "assay_type": "physicochemical", "experimental": "(§1) Doses of calcium (5, 10, 15, and 20 mg Ca 100 g^−1 milk), based on the calcium compound’s molecular weight, were added to 100 g of raw goat’s milk in the form of chloride, gluconate, lactate, and carbonate and tested to determine the pH value and thermal stability of milk. A control sample (0 mg Ca 100 g^−1 milk) was also prepared. The samples were heated in a water bath to 25 °C, mixed, and pasteurized (90 °C, 15 s). In the cooled (25 °C) samples of control milk and milk with calcium addition, the pH value was determined using a FiveEasy pH meter with an electrode InLab® Solids Pro-ISM (Mettler Toledo, Greifensee, Switzerland)."}, "[3]": {"test": "Thermal stability of goat milk proteins during pasteurization (90 °C, 15 s)", "assay_type": "physicochemical", "settings": "doses up to 20 mg Ca per 100 g of milk", "experimental": "as §1"}, "[4]": {"set-up": "method as in doi:10.1111/j.1471-0307.2010.00613.x", "settings": "30 mM calcium added before heating; cited from earlier work"}, "[5]": {"set-up": "method as in doi:10.21608/jfds.2019.54698", "settings": "cited from earlier work"}, "[6]": {"test": "Texture profile analysis (TPA) of cheese", "assay_type": "physicochemical, goat", "experimental": "Fresh acid rennet cheese was produced following the methodology by Pawlos et al. (Scheme 1). The caprine milk was divided into batches, each containing 2000 g of milk, heated to 25 °C, and treated with varying amounts and dosages of calcium compound. The control sample (0 mg Ca per 100 g of milk) and milk with calcium addition (5, 10, 15, 20 mg Ca per 100 g of milk) were pasteurized in a water bath at 90 °C for 15 s. Subsequently, the milk was cooled to 28 °C, and each batch was inoculated with 0.20% (w/w) of starter culture for 15 min before adding 0.02% (v/w) of rennet. The mixture was stirred and incubated at 28 °C until the pH reached 4.60 (±0.50) in a Cooled Incubator ILW 115 (POL-EKO Aparatura, Wodzisław Śląski, Poland). Acid rennet curds were then cut into 15 × 15 × 15 mm cubes and heated in a water bath at 35 °C for 1.5 h. Following this, the temperature was increased to 40 °C for 0.5 h. The whey was separated using cheesecloth, and the curds were transferred to molds, pressed (10 N kg^−1, 0.5 h) using a pneumatic cylinder press (Pneumatig, Gdynia, Poland), and refrigerated in labeled individual plastic containers at 4 °C for 24 h prior to analysis. All physicochemical analyses were conducted on ground cheese samples.\nThe texture profile analysis test (TPA) was performed with a CT3 Texture Analyzer and Texture Pro CT 1.2 software (Brookfield AMETEK, Middleboro, MA, USA). Before testing, cheese samples were cut (20 × 20 × 20 mm) and kept at a temperature of 10 °C ± 1 °C. Compression test was performed using a plastic plunger type TA3/100 (25.4 mm diameter) and configured with the following parameters: distance 15 mm, measurement speed 5 mm s^−1, contact load 1.00 N, and hold time 1 s. The TPA test was applied to measure cheese hardness (N), adhesiveness (mJ), cohesiveness, and springiness (mm)."}}, "note": "Read-outs that look alike come from different tables or passages of the source."}
{"molecule": "O=C([O-])[O-].[Ca+2]", "note": "[Carbonate, calcium carbonate]", "values": [{"measurement": "cheese pH value higher than the control cheese", "setting": "[1]", "result": 0.19}, {"measurement": "increase of milk pH value compared to the control sample", "setting": "[2]", "result": 0.11}, {"measurement": "thermal stability of milk during pasteurization", "setting": "[3]", "result": "not reduced"}]}
{"molecule": "[Ca+2].[Cl-].[Cl-]", "note": "[Chloride, Calcium chloride]", "values": [{"measurement": "reduction of pH of cow's milk", "setting": "[4]", "result": "up to 0.64"}, {"measurement": "reduction of milk pH value compared to the control sample", "setting": "[2]; greatest reduction", "result": 0.23}, {"measurement": "reduction of milk pH", "setting": "[2]; lowest dose of calcium, 5 mg 100 g^−1", "result": 0.17}, {"measurement": "pH of Karish cheese", "setting": "[5]; 200 mg 100 mL^−1 added to milk", "result": 4.69}, {"measurement": "pH of Karish cheese", "setting": "[5]; 300 mg 100 mL^−1 added to milk", "result": 4.50}, {"measurement": "Springiness", "setting": "[6]; 5 mg Ca 100 g^−1 of milk", "result": 1.27, "unit": "mm"}, {"measurement": "thermal stability of milk during pasteurization", "setting": "[3]", "result": "not reduced"}]}
{"molecule": "O=C([O-])[C@H](O)[C@@H](O)[C@H](O)[C@H](O)CO.O=C([O-])[C@H](O)[C@@H](O)[C@H](O)[C@H](O)CO.[Ca+2]", "note": "[Gluconate, calcium gluconate]", "values": [{"measurement": "pH", "setting": "[1]; cheese, 20 mg Ca 100 g^−1 of milk", "result": 4.61}, {"measurement": "Cohesiveness", "setting": "[6]; 15 mg Ca 100 g^−1 of milk", "result": 0.30}, {"measurement": "Springiness", "setting": "[6]; 15 mg Ca 100 g^−1 of milk", "result": 3.94, "unit": "mm"}, {"measurement": "thermal stability of milk during pasteurization", "setting": "[3]", "result": "not reduced"}]}
{"molecule": "CC(O)C(=O)[O-].CC(O)C(=O)[O-].[Ca+2]", "note": "(stereo not drawn) [Lactate, calcium lactate]", "values": [{"measurement": "thermal stability of milk during pasteurization", "setting": "[3]", "result": "not reduced"}]}
